# Test results: US20080207643A1, “Composition for Treating Hyperlipaemia” (priority 2004, published 2008)
# What was measured:
# [1] = tested on: hyperlipemia rat model; assay: Effects on the blood lipid level in hyperlipemia model rats (high lipid containing feed); type: in vivo, Wistar rats; details: gavage 14 days
# Text: Each group included 10 rats. […] The measurement is the same as the experiment conducted on normal rats as described in section 5.4.
# [2] = cited from earlier work
# [3] = tested on: normal rats; assay: Effects on the blood lipid level in the normal rats; type: in vivo, Wistar rats; details: gavage 4 days
# Experimental: Wistar rats, bred by the Medical Experimental Animal Centre of Chinese Academy of Military Medical Sciences, certificate No. […] By calculating in accordance with the principle of dosage equivalent per body surface area, the above mentioned generally used dosage for human was converted into the dosage for rats of about 50 mg/kg/day. […] By calculating in accordance with the principle of dosage equivalent per body surface area, the above mentioned generally used dosage for human was converted into the dosage for rats of about 0.85 mg/kg/day.
# [4] = tested on: hyperlipemia rat model; assay: Comparison of the different formulations of acipimox in combination with atorvastatin calcium on hyperlipemia of rats; type: in vivo, Wistar rats; details: comparison test, gavage 14 days
# Text: The level of serum total cholesterol level was respectively measured before grouping, and then randomly grouping by following the balance principle. Each group included 10 rats.
# [5] = tested on: hyperlipemia model rats; assay: Effects on the activity of seroenzyme (alanine transaminase, creatine kinase) in the model rats; details: for Alanine transaminase / Creatine kinase: serum of model rats, gavage 14 days
# Experimental: Hyperlipemia rat model was established by inducing hyperlipemia with high lipid containing feed. The formulation of high lipid containing feed was as follows: basic feed 86.3%, cholesterol 3%, lard 10%, methylthiouracil 0.2% and porcine bile salt 0.5%, and were allowed to be mixed uniformly. The rats were continuously fed for 2 weeks. During the administration of drugs, high lipid containing feed was administered every other day.
# The serum bio-chemical index includes total cholesterol (TC), alanine transaminase (ALT), creatine kinase (CK), triglyceride (TG), low density lipoprotein-cholesterol (LDL-C), high density lipoprotein-cholesterol (LDL-C). The reagents for measuring alanine transaminase (ALT) and creatine kinase (CK) were produced by Beijing Zhongsheng High-Tech Bioengineering Company, and SABA/18 Automatic Biochemical Analyzer was used for measurement. Other reagents were produced by Roche Inc., Japan, and Hitachi 7020 Automatic Biochemical Analyzer was used for measurement. The measuring methods are based on the specifications of the reagents, and the rats were fasted for 16 hours before collecting blood.
# The administering route intended for the clinical application is oral administration, and thus gavage administration was used in the present experiment for continuous 14 days. Gavage administration was conducted on the rats after feeding, once per day. The dosing volume is 0.3 ml/100 g of body weight.
# [6] = tested on: hyperlipemia patients; details: 80 mg/d, 22 hyperlipemia patients; cited from earlier work
smiles,measurement,setting,value
"Cc1cnc(C(=O)O)c[n+]1[O-] [Acipimox, acipimox]",High density lipoprotein-cholesterol,[1]; acipimox 100 mg/kg,3.95 ± 0.63 mmol/L
same,Low density lipoprotein-cholesterol,[1]; acipimox 100 mg/kg,8.44 ± 1.06 mmol/L
same,Total cholesterol in serum,[1]; acipimox 100 mg/kg,13.18 ± 2.31 mmol/L
same,Triglyceride in serum,[1]; acipimox 100 mg/kg,1.98 ± 0.42 mmol/L
same,High density lipoprotein-cholesterol,[1]; acipimox 200 mg/kg,4.35 ± 0.55 mmol/L
same,Low density lipoprotein-cholesterol,[1]; acipimox 200 mg/kg,8.23 ± 0.40 mmol/L
same,Total cholesterol in serum,[1]; acipimox 200 mg/kg,10.82 ± 3.05 mmol/L
same,Triglyceride in serum,[1]; acipimox 200 mg/kg,1.78 ± 0.55 mmol/L
same,High density lipoprotein-cholesterol,[1]; acipimox 300 mg/kg,4.56 ± 0.50 mmol/L
same,Low density lipoprotein-cholesterol,[1]; acipimox 300 mg/kg,7.79 ± 0.89 mmol/L
same,Total cholesterol in serum,[1]; acipimox 300 mg/kg,10.73 ± 2.36 mmol/L
same,Triglyceride in serum,[1]; acipimox 300 mg/kg,1.69 ± 0.51 mmol/L
same,High density lipoprotein-cholesterol,[1]; acipimox 400 mg/kg,4.70 ± 0.58 mmol/L
same,Low density lipoprotein-cholesterol,[1]; acipimox 400 mg/kg,7.65 ± 0.40 mmol/L
same,Total cholesterol in serum,[1]; acipimox 400 mg/kg,11.18 ± 2.47 mmol/L
same,Triglyceride in serum,[1]; acipimox 400 mg/kg,1.72 ± 0.54 mmol/L
same,combination with plasma protein,[2]; in vivo,does not combine with plasma protein
same,excretion and metabolism,[2]; in vivo,"excreted mainly in the form of Acipimox itself, without being metabolized"
same,half life,[2]; oral administration,2 h
same,time to the peak of plasma concentration after administration,[2]; oral administration,≤ 2 h
same,High density lipoprotein-cholesterol,[3]; acipimox 100 mg/kg,0.97 ± 0.16 mmol/L
same,Low density lipoprotein-cholesterol,[3]; acipimox 100 mg/kg,0.32 ± 0.12 mmol/L
same,Total cholesterol in serum,[3]; acipimox 100 mg/kg,1.60 ± 0.35 mmol/L
same,Triglyceride in serum,[3]; acipimox 100 mg/kg,0.71 ± 0.27 mmol/L
same,High density lipoprotein-cholesterol,[3]; acipimox 200 mg/kg,0.98 ± 0.23 mmol/L
same,Low density lipoprotein-cholesterol,[3]; acipimox 200 mg/kg,0.26 ± 0.11 mmol/L
same,Total cholesterol in serum,[3]; acipimox 200 mg/kg,1.55 ± 0.28 mmol/L
same,Triglyceride in serum,[3]; acipimox 200 mg/kg,0.69 ± 0.33 mmol/L
same,High density lipoprotein-cholesterol,[3]; acipimox 300 mg/kg,1.15 ± 0.26 mmol/L
same,Low density lipoprotein-cholesterol,[3]; acipimox 300 mg/kg,0.29 ± 0.11 mmol/L
same,Total cholesterol in serum,[3]; acipimox 300 mg/kg,1.51 ± 0.26 mmol/L
same,Triglyceride in serum,[3]; acipimox 300 mg/kg,0.63 ± 0.28 mmol/L
same,High density lipoprotein-cholesterol,[3]; acipimox 400 mg/kg,1.18 ± 0.13 mmol/L
same,Low density lipoprotein-cholesterol,[3]; acipimox 400 mg/kg,0.24 ± 0.14 mmol/L
same,Total cholesterol in serum,[3]; acipimox 400 mg/kg,1.49 ± 0.28 mmol/L
same,Triglyceride in serum,[3]; acipimox 400 mg/kg,0.57 ± 0.36 mmol/L
same,High density lipoprotein-cholesterol,[4]; acipimox 200 mg/kg,4.20 ± 1.10 mmol/L
same,Low density lipoprotein-cholesterol,[4]; acipimox 200 mg/kg,7.27 ± 1.83 mmol/L
same,Total cholesterol in serum,[4]; acipimox 200 mg/kg,10.31 ± 1.67 mmol/L
same,Triglyceride in serum,[4]; acipimox 200 mg/kg,1.79 ± 0.63 mmol/L
same,High density lipoprotein-cholesterol,[4]; acipimox 300 mg/kg,4.54 ± 0.52 mmol/L
same,Low density lipoprotein-cholesterol,[4]; acipimox 300 mg/kg,6.96 ± 1.23 mmol/L
same,Total cholesterol in serum,[4]; acipimox 300 mg/kg,8.69 ± 1.88 mmol/L
same,Triglyceride in serum,[4]; acipimox 300 mg/kg,1.68 ± 0.56 mmol/L
same,levels of alanine transaminase and creatine kinase in serum in comparison with the model control group,"[5]; model rats, 14 days, acipimox 100 to 400 mg/kg, P>0.05",not remarkably different
same,Alanine transaminase,[5]; acipimox 100 mg/kg,640.3 ± 117.6 nmol/s/L
same,Creatine kinase,[5]; acipimox 100 mg/kg,361.4 ± 106.4 U/L
same,Alanine transaminase,[5]; acipimox 200 mg/kg,645.4 ± 124.9 nmol/s/L
same,Creatine kinase,[5]; acipimox 200 mg/kg,354.4 ± 110.9 U/L
same,Alanine transaminase,[5]; acipimox 300 mg/kg,655.5 ± 110.5 nmol/s/L
same,Creatine kinase,[5]; acipimox 300 mg/kg,380.33 ± 120.1 U/L
same,Alanine transaminase,[5]; acipimox 400 mg/kg,642.8 ± 114.2 nmol/s/L
same,Creatine kinase,[5]; acipimox 400 mg/kg,377.3 ± 103.4 U/L
"CC(C)c1c(C(=O)Nc2ccccc2)c(-c2ccccc2)c(-c2ccc(F)cc2)n1CC[C@@H](O)C[C@@H](O)CC(=O)O [Atorvastatin calcium, calcium [R-(R′,R′)]2-(4-fluorophenyl)-βδ-dihydroxyl-5-(1-methylethyl)-3-phenyl-4-[aniline]carbonyl]-1-hydro-pyrrolyl-1-heptanoate trihydrate]",Total cholesterol in serum,[1]; atorvastatin calcium 5 mg/kg,12.45 ± 2.67 mmol/L
same,Triglyceride in serum,[1]; atorvastatin calcium 5 mg/kg,1.93 ± 0.52 mmol/L
same,Total cholesterol in serum,[1]; atorvastatin calcium 10 mg/kg,11.23 ± 2.12 mmol/L
same,Triglyceride in serum,[1]; atorvastatin calcium 10 mg/kg,1.80 ± 0.28 mmol/L
same,Total cholesterol in serum,[1]; atorvastatin calcium 20 mg/kg,10.27 ± 2.67 mmol/L
same,Triglyceride in serum,[1]; atorvastatin calcium 20 mg/kg,1.72 ± 0.47 mmol/L
same,Total cholesterol in serum,[1]; atorvastatin calcium 30 mg/kg,9.91 ± 2.65 mmol/L
same,Triglyceride in serum,[1]; atorvastatin calcium 30 mg/kg,1.78 ± 0.55 mmol/L
same,Total cholesterol in serum,[3]; atorvastatin calcium 5 mg/kg,1.64 ± 0.30 mmol/L
same,Triglyceride in serum,[3]; atorvastatin calcium 5 mg/kg,0.67 ± 0.28 mmol/L
same,Total cholesterol in serum,[3]; atorvastatin calcium 10 mg/kg,1.52 ± 0.31 mmol/L
same,Triglyceride in serum,[3]; atorvastatin calcium 10 mg/kg,0.65 ± 0.33 mmol/L
same,Total cholesterol in serum,[3]; atorvastatin calcium 20 mg/kg,1.46 ± 0.24 mmol/L
same,Triglyceride in serum,[3]; atorvastatin calcium 20 mg/kg,0.55 ± 0.16 mmol/L
same,Total cholesterol in serum,[3]; atorvastatin calcium 30 mg/kg,1.41 ± 0.29 mmol/L
same,Triglyceride in serum,[3]; atorvastatin calcium 30 mg/kg,0.51 ± 0.18 mmol/L
same,decreases the activity of coagulation factor VII,[6],8%
same,decreases the coagulation rate of platelet induced by thromboxane A2 (TXA2),[6],11%
same,Total cholesterol in serum,[4]; atorvastatin calcium 10 mg/kg,10.20 ± 1.62 mmol/L
same,Triglyceride in serum,[4]; atorvastatin calcium 10 mg/kg,1.56 ± 0.62 mmol/L
same,Total cholesterol in serum,[4]; atorvastatin calcium 20 mg/kg,9.65 ± 2.22 mmol/L
same,Triglyceride in serum,[4]; atorvastatin calcium 20 mg/kg,1.47 ± 0.56 mmol/L
